Our source for the BBB activity values is patent US20230107642A1 (Erasca, Inc., priority 2020, published 2023).

This data set can be described thus: Determination of total drug concentration in rat brain (BBB penetration). The format is in vivo. Conditions: male SD rat, 2 mg/kg IV infusion for 4 hours, brain collected at end of 4 hours. The protocol:
BB. Example 9: Determination of Total Drug Concentration in Rat Brain
In Vivo Experimental Procedures
Infuse male SD rat at 2 mg/kg dose for 4 hours through IV administration route. Collect brain tissues at the end of 4 hours.
Sample Preparation Procedures
Dilute brain tissue by adding homogenization solvent (1:4, w/v). Homogenize diluted brain tissue samples. Extract analyte by adding organic solvent (1:4, v/v) with spiked internal standard. Vortex and centrifuge the samples. Remove supernatant and dilute with HPLC compatible solvent (1:3, v/v).
Inject diluted extract into LC-MS/MS system using reversed phase high performance liquid chromatography coupled with electrospray ionization and selected reaction monitoring. Determine the total drug concentration in brain samples by quantitating against the standard curve prepared using the same matrix.
The following data provides blood brain barrier (BBB) penetration activity for a selection of inventive compounds where were directly compared to sotorasib and adagrasib (concentration in brain measured in ng/g).
Compounds that were measured as having a total concentration in the brain of at least 60 ng/g are indicated as “+”.
As to `C=C(F)C(=O)N1[C@H](C)CN(c2nc(=O)n3c4c(c(-c5ccc(F)cc5)c(C(F)(F)F)cc24)SC[C@@H](OC)C3)C[C@@H]1C` [Example 13-9], the BBB activity entry is recorded as “+ (Compounds that were measured as having a total concentration in the brain of at least 60 ng/g are indicated as “+”)”.
The result for `C=CC(=O)N1[C@H](C)CN(c2nc(=O)n3c4c(c(-c5ccc(F)cc5)c(C(F)(F)F)cc24)SC[C@@H]3COC)C[C@@H]1C` [Example 13-10] reads “+ (Compounds that were measured as having a total concentration in the brain of at least 60 ng/g are indicated as “+”)”.
Then `C=CC(=O)N1[C@H](C)CN(c2nc(=O)n3c4c(c(-c5ccc(F)cc5F)c(C(F)(F)F)cc24)SC[C@@H]3COC)C[C@@H]1C` [Example 13-13], with “+ (Compounds that were measured as having a total concentration in the brain of at least 60 ng/g are indicated as “+”)”; and `C=CC(=O)N1CCN(c2nc(=O)n3c4c(c(-c5ccc(F)cc5F)c(C(F)(F)F)cc24)SC[C@@H]3COC)CC1` [Example 13-14], with “+ (Compounds that were measured as having a total concentration in the brain of at least 60 ng/g are indicated as “+”)”.
Then `C=CC(=O)N1CCN(c2nc(=O)n3c4c(c(-c5c(C)cc(F)cc5F)c(C(F)(F)F)cc24)SC[C@@H]3COC)CC1` [Example 13-16], with “+ (Compounds that were measured as having a total concentration in the brain of at least 60 ng/g are indicated as “+”)”; and `C=CC(=O)N1C[C@H](C)N(c2nc(=O)n3c4c(c(-c5ccc(F)cc5F)c(Cl)cc24)SCC3)C[C@H]1C` [Example 13-18], with “+ (Compounds that were measured as having a total concentration in the brain of at least 60 ng/g are indicated as “+”)”; and `C=CC(=O)N1[C@H](C)CN(c2nc(=O)n3c4c(c(-c5cc(I)c(F)cc5F)c(C(F)(F)F)cc24)SC[C@@H]3COC)C[C@@H]1C` [Example 13-19], with “+ (Compounds that were measured as having a total concentration in the brain of at least 60 ng/g are indicated as “+”)”.
As for `C=CC(=O)N1[C@H](C)CN(c2nc(=O)n3c4c(c(-c5ccccc5)c(C(F)(F)F)cc24)SC[C@@H]3COC)C[C@@H]1C` [Example 13-20], the BBB activity entry is “+ (Compounds that were measured as having a total concentration in the brain of at least 60 ng/g are indicated as “+”)”.
As for `C=CC(=O)N1CCN(c2nc(=O)n3c4c(c(-c5ccc(F)cc5F)c(C(F)(F)F)cc24)SCC3)[C@@H](C)C1` [Example 13-21], the BBB activity entry was “+ (Compounds that were measured as having a total concentration in the brain of at least 60 ng/g are indicated as “+”)”.
Turning to `C=CC(=O)N1[C@H](C)CN(c2nc(=O)n3c4c(c(-c5ccc(F)cc5)c(C(F)(F)F)cc24)SC[C@@H]3CN2CCN(C3CC3)CC2)C[C@@H]1C` [Example 13-22], the BBB activity entry is reported as “+ (Compounds that were measured as having a total concentration in the brain of at least 60 ng/g are indicated as “+”)”.
Turning to `C=CC(=O)N1C[C@H](C)N(c2nc(=O)n3c4c(c(-c5cc(Br)c(F)cc5F)c(C(F)(F)F)cc24)SCC2(COC2)C3)C[C@H]1C` [Example 13-23], the BBB activity result is reported as “+ (Compounds that were measured as having a total concentration in the brain of at least 60 ng/g are indicated as “+”)”.
For `C=CC(=O)N1[C@H](C)CN(c2nc(=O)n3c4c(c(-c5cc(Cl)c(F)cc5F)c(C(F)(F)F)cc24)SC[C@@H](OC)C3)C[C@@H]1C` [Example 13-24], the BBB activity entry was “+ (Compounds that were measured as having a total concentration in the brain of at least 60 ng/g are indicated as “+”)”.
Then `C=CC(=O)N1CCN(c2nc(=O)n3c4c(c(-c5ccc(F)c(Cl)c5)c(C(F)(F)F)cc24)SC[C@@H](OC)C3)CC1` [Example 13-25], with “+ (Compounds that were measured as having a total concentration in the brain of at least 60 ng/g are indicated as “+”)”; and `C=CC(=O)N1[C@H](C)CN(c2nc(=O)n3c4c(c(-c5ccc(F)cc5F)c(C(F)(F)F)cc24)SC[C@@H]3CN2CCN(C3CC3)CC2)C[C@@H]1C` [Example 13-26], with “+ (Compounds that were measured as having a total concentration in the brain of at least 60 ng/g are indicated as “+”)”; and `C=CC(=O)N1CCN(c2nc(=O)n3c4c(c(-c5cc(Cl)c(F)cc5F)c(Cl)cc24)SC[C@@H]3CN2CCN(C3CC3)CC2)[C@@H](C)C1` [Example 13-27], with “+ (Compounds that were measured as having a total concentration in the brain of at least 60 ng/g are indicated as “+”)”.
The result for `C=CC(=O)N1[C@H](C)CN(c2nc(=O)n3c4c(c(-c5cc(Cl)c(F)cc5F)c(C(F)(F)F)cc24)SC[C@@H]3CN2CCN(C3CC3)CC2)C[C@@H]1C` [Example 13-28] reads “+ (Compounds that were measured as having a total concentration in the brain of at least 60 ng/g are indicated as “+”)”; that for `C=CC(=O)N1C[C@H](C)N(c2nc(=O)n3c4c(c(-c5ccc(F)cc5F)c(C(F)(F)F)cc24)SC[C@@H]3CN2CCN(C3CC3)CC2)C[C@H]1C` [Example 13-29], “+ (Compounds that were measured as having a total concentration in the brain of at least 60 ng/g are indicated as “+”)”.
The result for `C=CC(=O)N1CCN(c2nc(=O)n3c4c(c(-c5cc(Cl)c(F)cc5F)c(C(F)(F)F)cc24)SC[C@@H]3CN2CCN(C3CC3)CC2)CC1` [Example 13-30] reads “+ (Compounds that were measured as having a total concentration in the brain of at least 60 ng/g are indicated as “+”)”; that for `C=CC(=O)N1C[C@H](C)N(c2nc(=O)n3c4c(c(-c5cc(Cl)c(F)cc5F)c(C(F)(F)F)cc24)SCC2(COC2)C3)C[C@H]1C` [Example 13-31], “+ (Compounds that were measured as having a total concentration in the brain of at least 60 ng/g are indicated as “+”)”; that for `C=CC(=O)N1CC2C(=O)N(C)c3cnc4c(F)c(-c5c(O)cccc5F)c(Cl)cc4c3N2C[C@H]1C` (some centres unmarked) [Example 13-32], “+ (Compounds that were measured as having a total concentration in the brain of at least 60 ng/g are indicated as “+”)”.
Take `C=CC(=O)N1CCN(c2nc(=O)n3c4c(c(-c5ccc(F)cc5)c(C(F)(F)F)cc24)SC[C@@H]3CN2CCN(C3CC3)CC2)CC1` [Example 13-33]: the BBB activity result is listed as “+ (Compounds that were measured as having a total concentration in the brain of at least 60 ng/g are indicated as “+”)”.
The result for `C=CC(=O)N1C[C@H](C)N(c2nc(=O)n3c4c(c(-c5cc(Cl)c(F)cc5F)c(C(F)(F)F)cc24)SCC2(CCOCC2)C3)C[C@H]1C` [Example 13-34] reads “+ (Compounds that were measured as having a total concentration in the brain of at least 60 ng/g are indicated as “+”)”; that for `C=CC(=O)N1CCN(c2nc(=O)n3c4c(c(-c5ccc(F)cc5F)c(C(F)(F)F)cc24)SC[C@@H]3COC)[C@@H](C)C1` [Example 13-35], “+ (Compounds that were measured as having a total concentration in the brain of at least 60 ng/g are indicated as “+”)”.
Then `C=CC(=O)N1[C@H](C)CN(c2nc(=O)n3c4c(c(-c5cc(Br)c(F)cc5F)c(C(F)(F)F)cc24)SCC2(COC2)C3)C[C@@H]1C` [Example 13-36], with “+ (Compounds that were measured as having a total concentration in the brain of at least 60 ng/g are indicated as “+”)”; and `C=CC(=O)N1CCN(c2nc(=O)n3c4c(c(-c5ccc(F)cc5F)c(C(F)(F)F)cc24)SC[C@H](OC)C3)CC1` [Example 13-37], with “+ (Compounds that were measured as having a total concentration in the brain of at least 60 ng/g are indicated as “+”)”; and `C=CC(=O)N1C[C@H](C)N(c2nc(=O)n3c4c(c(-c5ccc(F)cc5F)c(Cl)cc24)OCC3CN(C)C)C[C@H]1C` (some centres unmarked) [Example 13-38], with “+ (Compounds that were measured as having a total concentration in the brain of at least 60 ng/g are indicated as “+”)”.
Then `C=CC(=O)N1[C@H](C)CN(c2nc(=O)n3c4c(c(-c5ccc(F)cc5)c(C(F)(F)F)cc24)SC[C@@H](OC)C3)C[C@@H]1C` [Example 13-40], with “+ (Compounds that were measured as having a total concentration in the brain of at least 60 ng/g are indicated as “+”)”.
As for `C=CC(=O)N1[C@H](C)CN(c2nc(=O)n3c4c(c(-c5ccc(F)cc5)c(C(F)(F)F)cc24)SC[C@H](OCC)C3)C[C@@H]1C` [Example 13-41], the BBB activity entry is “+ (Compounds that were measured as having a total concentration in the brain of at least 60 ng/g are indicated as “+”)”.
The result for `C=CC(=O)N1[C@H](C)CN(c2nc(=O)n3c4c(c(-c5cc(Br)c(F)cc5F)c(C(F)(F)F)cc24)SC[C@@H](Oc2cnccn2)C3)C[C@@H]1C` [Example 13-42] reads “+ (Compounds that were measured as having a total concentration in the brain of at least 60 ng/g are indicated as “+”)”; that for `C=CC(=O)N1CCN(c2nc(=O)n3c4c(c(-c5ccc(F)cc5F)c(Cl)cc24)SCC3)[C@@H](C)C1` [Example 13-43], “+ (Compounds that were measured as having a total concentration in the brain of at least 60 ng/g are indicated as “+”)”; that for `C=CC(=O)N1[C@H](C)CN(c2nc(=O)n3c4c(c(-c5cc(Cl)c(F)cc5F)c(C(F)(F)F)cc24)SC[C@@H]3CN2C[C@@H]3C[C@H]2CO3)C[C@@H]1C` [Example 13-46], “+ (Compounds that were measured as having a total concentration in the brain of at least 60 ng/g are indicated as “+”)”.
The result for `C=CC(=O)N1[C@H](C)CN(c2nc(=O)n3c4c(c(-c5ccc(F)cc5)c(C(F)(F)F)cc24)SC[C@H](c2ccccc2)C3)C[C@@H]1C` [Example 13-47] reads “− (Compounds that did not meet this threshold are indicated as “−”)”.
